# Measurements reported in the supplement of paper PMC10307832.
# Legend:
# Assay in all cases: relative viability (nuclei count vs DMSO), 5 days (fraction); higher = more cells survive
# Metformin + Pictilisib = compound: CN(C)C(=N)NC(=N)N [Metformin] + CS(=O)(=O)N1CCN(Cc2cc3nc(-c4cccc5[nH]ncc45)nc(N4CCOCC4)c3s2)CC1 [Pictilisib] (partner 1 µM)
# How it was run: (§1)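 Each reported value is a median over duplicate plates. It expresses relative viability: treated-well nuclei count divided by vehicle-well nuclei count. Lung cancer cell lines in 1536-well plates were dosed by pin tool a day after seeding, alone with one drug or with a fixed anchor-drug dose plus five library-drug doses (not always all listed) in √10 steps, and nuclei were counted after 5 days.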
# Metformin + Linsitinib = compound: CN(C)C(=N)NC(=N)N [Metformin] + C[C@]1(O)C[C@@H](c2nc(-c3ccc4ccc(-c5ccccc5)nc4c3)c3c(N)nccn32)C1 [Linsitinib] (partner 1 µM)
# How it was run: as §1
# Metformin + OSI-027 = compound: CN(C)C(=N)NC(=N)N [Metformin] + COc1cccc2cc(-c3nc([C@H]4CC[C@H](C(=O)O)CC4)n4ncnc(N)c34)[nH]c12 [OSI-027] (partner 0.5 µM)
# How it was run: as §1
# Metformin + Tozasertib = compound: CN(C)C(=N)NC(=N)N [Metformin] + Cc1cc(Nc2cc(N3CCN(C)CC3)nc(Sc3ccc(NC(=O)C4CC4)cc3)n2)n[nH]1 [Tozasertib] (partner 0.1 µM)
# How it was run: as §1
Cell Line,relative viability (Metformin + Pictilisib; first compound 10 µM),relative viability (Metformin + Pictilisib; first compound 31.62 µM),relative viability (Metformin + Pictilisib; first compound 100 µM),relative viability (Metformin + Pictilisib; first compound 316.23 µM),relative viability (Metformin + Pictilisib; first compound 1000 µM),relative viability (Metformin + Linsitinib; first compound 10 µM),relative viability (Metformin + Linsitinib; first compound 31.62 µM),relative viability (Metformin + Linsitinib; first compound 100 µM),relative viability (Metformin + Linsitinib; first compound 316.23 µM),relative viability (Metformin + Linsitinib; first compound 1000 µM),relative viability (Metformin + OSI-027; first compound 10 µM),relative viability (Metformin + OSI-027; first compound 31.62 µM),relative viability (Metformin + OSI-027; first compound 100 µM),relative viability (Metformin + OSI-027; first compound 316.23 µM),relative viability (Metformin + OSI-027; first compound 1000 µM),relative viability (Metformin + Tozasertib; first compound 10 µM),relative viability (Metformin + Tozasertib; first compound 31.62 µM),relative viability (Metformin + Tozasertib; first compound 100 µM),relative viability (Metformin + Tozasertib; first compound 316.23 µM),relative viability (Metformin + Tozasertib; first compound 1000 µM)
NCI-H647,0.469,0.535,0.479,0.441,0.292,1.11,1.14,1.24,1.19,1.2,0.721,0.853,0.538,0.485,0.924,0.244,0.293,0.349,0.456,0.307
NCI-H661,0.406,0.464,0.485,0.552,0.518,0.761,0.966,0.812,0.767,0.677,0.6,0.617,0.487,0.613,0.642,0.344,0.373,0.377,0.362,0.366
HCC-366,0.141,0.213,0.138,0.115,0.185,0.646,0.703,0.75,0.559,0.691,0.757,0.967,0.991,0.808,1.28,0.142,0.141,0.111,0.135,0.163
HOP-62,0.739,0.656,0.786,0.531,0.657,0.891,1.09,0.995,1.04,0.846,0.827,0.903,0.992,0.678,0.861,0.283,0.373,0.316,0.285,0.289
A549,0.428,0.517,0.553,0.464,0.0878,0.647,0.789,0.85,0.631,0.711,–,–,–,–,–,–,–,–,–,–
HCC-827,–,0.914,1.13,0.996,1.15,–,0.89,0.945,0.883,0.973,–,0.714,0.704,0.586,0.73,–,0.422,0.442,0.387,0.439
NCI-H1395,0.64,0.728,0.653,0.81,0.593,0.997,1.15,0.934,1.02,0.385,0.74,0.899,0.669,0.693,0.75,0.727,0.752,0.867,0.83,0.738
SK-MES-1,0.424,0.34,0.362,0.378,0.414,0.979,0.927,0.993,0.939,1.02,0.446,0.551,0.532,0.432,0.454,0.624,0.693,0.75,0.662,0.771
NCI-H2023,–,0.269,0.262,–,0.252,–,0.687,0.806,–,0.515,0.421,0.558,0.379,0.397,0.378,0.32,0.413,0.479,0.301,0.324
